From patent US20180036439A1, “COUPLED IDENTIFICATION AND TREATMENT OF CANCER” (priority 2009, published 2018)
Blank lines part the entries; values can stand above or below the compound they belong to.

What was measured:
Format in all cases: in vivo, human
[1] = tolerability of Nexavar treatment in the subject with primary liver cancer; settings: 800 mg/day, terminated after about 10 weeks; one patient
Experimental: (§1) The subject of this study was a person who was diagnosed with non-resectable primary liver cancer (hepatocellular carcinoma). The diagnosis was based on results of x-ray CT scans and tumor biopsy. Within two weeks of diagnosis the subject began treatment with Nexavar® (sorafenib) at a dose of 800 mg/day.

[2] = tested on: liver tumors (hepatocellular carcinoma); test: gallium scan (planar and SPECT) after intravenous ^67Ga citrate; settings: 134 MBq ^67Ga citrate i.v., one patient
Experimental: Very briefly, a gallium scan is performed by administering a small amount of a gallium radioisotope (usually ^67Ga) to a subject and then scanning the subject to map the distribution of resulting radioactivity in the body; the amount of radioactivity will be directly proportional to the uptake of gallium. Scanning is performed on the whole body or portions of the body using a scintillation detector or other suitable radiation detector.
Scanning is performed using a scintillation detector or another detector that is sensitive to the radiation produced by the gallium radioisotope (e.g., gamma rays for ^67Ga). For ^67Ga, a multipeak gamma camera with a large field of view and head shielding is commonly used. Scans may be either planar (two-dimensional (2-D) imaging) or as multiple tomographic scans leading to three-dimensional (3-D) imaging. The latter scans generally employ single-photon emission computerized tomography (SPECT or SPET), which may provide higher contrast and localization than planar images alone.
Planar and SPECT images were obtained 48 hours after ^67Ga citrate administration. […] At that time the subject was experiencing moderate nausea, anorexia, and fatigue, with severe pain and tenderness of the right abdomen that prevented the subject from lying on their right side.

[3] = tested on: non-resectable primary liver cancer (hepatocellular carcinoma); test: oral gallium maltolate treatment of a subject with primary liver cancer; settings: one patient
Experimental: as §1
Based on the high avidity of the subject's hepatocellular carcinoma for gallium, as shown by the gallium scans, treatment of the patient with orally administered gallium maltolate was initiated. Treatment was started about a week after the gallium scans were performed. Gallium maltolate was administered as two 750 mg tablets taken once per day before breakfast (for a dose of 1500 mg/day). The largest tumor was about 20 cm in diameter by CT scan at three weeks before gallium maltolate administration was started.
The patient reported that their right abdominal pain was nearly gone, and they could lie and sleep on their right side.

[4] = about four months into treatment, 1500 mg/day oral
[5] = two weeks after start of 1500 mg/day oral

Structure (SMILES): CNC(=O)c1cc(Oc2ccc(NC(=O)Nc3ccc(Cl)c(C(F)(F)F)c3)cc2)ccn1 [Nexavar®, sorafenib]
adverse effects that led to termination of treatment [1]: severe peripheral neuropathy, nausea, fatigue, gastrointestinal disorders, and anorexia

gallium uptake in the surrounding liver tissue and in other organs ([2]; images 48 hours after administration): very low uptake
gallium uptake in the liver tumors, average counts per second relative to surrounding healthy liver tissue ([2]; planar and SPECT images 48 hours after administration): twenty to fifty
Structure (SMILES): O=C([O-])CC(O)(CC(=O)[O-])C(=O)[O-].[67Ga+3] [^67Ga citrate]

Structure (SMILES): Cc1occc(=O)c1[O-].Cc1occc(=O)c1[O-].Cc1occc(=O)c1[O-].[Ga+3] [gallium maltolate, tris(3-hydroxy-2-methyl-4H-pyran-4-onato)gallium]
state of the primary tumor by CT scan [3, 4]: apparent necrosis of the primary tumor
tumor growth by CT scan [3, 4]: no new tumor growth
patient's condition ([3]; over the next six months of treatment, 1500 mg/day oral): continued to improve
serum bilirubin (total) ([3]; two weeks after start of 1500 mg/day oral, before treatment 27.5, normal 2-20): 11.9 µmol/L
serum AST ([3]; two weeks after start of 1500 mg/day oral, before treatment 132, normal 0-40): 70 IU/L
ability to engage in normal activities [3, 5]: substantially increased
right abdominal pain (patient report) [3, 5]: nearly gone
